Laboratory results taken from patent US6159963A, “Method for treating substance abuse” (Eli Lilly and Company, priority 1996, dated 2000).

Tests used:
[1] = system: muscarinic cholinergic receptor; assay: pharmacological studies, muscarinic cholinergic receptor activity
5-HT1C receptor = assay: pharmacological studies, 5-HT1C receptor activity
patients = assay: double-blind multicenter clinical trial, olanzapine versus placebo; format: in vivo, human; conditions: patients randomized to olanzapine or placebo
From the text: A double-blind multicenter clinical trial was designed to assess the safety and efficacy of olanzapine. Patients were randomized to olanzapine or placebo.

Cc1cc2c(s1)Nc1ccccc1N=C2N1CCN(C)CC1 [olanzapine, 2-methyl-4-(4-methyl-1-piperazinyl)-10H-thieno[2,3-b][1,5]benzodiazepine]
muscarinic cholinergic receptor activity [1]: has muscarinic cholinergic receptor activity
activity at the 5-HT1C receptor (5-HT1C receptor): active
usefulness for treatment of addictive substance withdrawal (clinical observations) (patients): can be useful for the treatment of addictive substance withdrawal
